Source: patent publication US20250147039A1, “Compounds for complexation of rare earth elements and/or s-, p-, d- block metals, their coordination compounds, peptide conjugates, method of their preparation and use thereof” (USTAV ORGANICKE CHEMIE A BIOCHEMIE AV CR V.V.I., priority 2021, published 2025)

Legend:
[1] = Formation of 1,5-cz-[Lu(Lig)] from Lig (metal dependent click-zip) with various absolute concentrations (Chart 12); type: physicochemical
[2] = Formation of 1,5-cz-[M(Lig)] from Lig and M^III ions (metal dependent click-zip) (Charts 4, 5); type: physicochemical; conditions: for conversion to 1,5-cz-[M(Lig)], Bi^III: 4% DMSO in MOPS/NaOH buffer pH 7.0, TD728 in 50% i-PrOH; for conversion to 1,5-cz-[M(Lig)], Ga^III / conversion to 1,5-cz-[M(Lig)], In^III / conversion to 1,5-cz-[M(Lig)], Sc^III / conversion to 1,5-cz-[M(Lig)], Y^III: MOPS/NaOH buffer pH 7.0; for conversion to 1,5-cz-[M(Lig)], Sc^III / conversion to 1,5-cz-[M(Lig)], Y^III: TD728, TD827 in 50% i-PrOH; for conversion to 1,5-cz-[M(Lig)], Y^III: TD714 sum of two diastereoisomers
[3] = Alkali metal dependent formation of 1,5-cz-Lig and 1,4-cz-Lig isomers from Lig at pH 10.2 (Chart 14); type: physicochemical; conditions: Borate/(M^I)2CO3 buffer pH 10.2
[4] = Formation of 1,5-cz-[Ln(Lig)] from Lig and Ln^III ions (metal dependent click-zip), MOPS/NaOH buffer pH 7.0, analytical HPLC (Charts 1, 2); conditions: MOPS/NaOH buffer pH 7.0
[5] = B: 1 day at 80° C., visible analyte free precipitate

conversion to 1,5-cz-[Lu(Lig)] ([1]; A: 1 hour at 80° C., Lig 5.0 × 10^0 mM, Lu^III 7.5 × 10^0 mM): 74%
conversion to 1,5-cz-[Lu(Lig)] ([1]; A: 1 hour at 80° C., Lig 5.0 × 10^1 mM, Lu^III 7.5 × 10^1 mM): 71%
conversion to 1,5-cz-[Lu(Lig)] ([1]; A: 1 hour at 80° C., Lig 5.0 × 10^−1 mM, Lu^III 7.5 × 10^−1 mM): 70%
conversion to 1,5-cz-[Lu(Lig)] ([1]; A: 1 hour at 80° C., Lig 5.0 × 10^−2 mM, Lu^III 7.5 × 10^−2 mM): 60%
conversion to 1,5-cz-[Lu(Lig)] ([1]; A: 1 hour at 80° C., Lig 5.0 × 10^−3 mM, Lu^III 7.5 × 10^−3 mM): 15%
conversion to 1,5-cz-[Lu(Lig)] ([1]; B: 1 day at 80° C., Lig 5.0 × 10^0 mM, Lu^III 7.5 × 10^0 mM): 96%
conversion to 1,5-cz-[Lu(Lig)] ([1]; B: 1 day at 80° C., Lig 5.0 × 10^1 mM, Lu^III 7.5 × 10^1 mM): 84%
conversion to 1,5-cz-[Lu(Lig)] ([1]; B: 1 day at 80° C., Lig 5.0 × 10^−1 mM, Lu^III 7.5 × 10^−1 mM): 97%
conversion to 1,5-cz-[Lu(Lig)] ([1]; B: 1 day at 80° C., Lig 5.0 × 10^−2 mM, Lu^III 7.5 × 10^−2 mM): 96%
conversion to 1,5-cz-[Lu(Lig)] ([1]; B: 1 day at 80° C., Lig 5.0 × 10^−3 mM, Lu^III 7.5 × 10^−3 mM): 59%
conversion to 1,5-cz-[Lu(Lig)] ([1]; C: 1 week at 80° C., Lig 5.0 × 10^0 mM, Lu^III 7.5 × 10^0 mM): 96%
conversion to 1,5-cz-[Lu(Lig)] ([1]; C: 1 week at 80° C., Lig 5.0 × 10^1 mM, Lu^III 7.5 × 10^1 mM): 86%
conversion to 1,5-cz-[Lu(Lig)] ([1]; C: 1 week at 80° C., Lig 5.0 × 10^−1 mM, Lu^III 7.5 × 10^−1 mM): 97%
conversion to 1,5-cz-[Lu(Lig)] ([1]; C: 1 week at 80° C., Lig 5.0 × 10^−2 mM, Lu^III 7.5 × 10^−2 mM): 96%
conversion to 1,5-cz-[Lu(Lig)] ([1]; C: 1 week at 80° C., Lig 5.0 × 10^−3 mM, Lu^III 7.5 × 10^−3 mM): 57%
conversion to 1,5-cz-[M(Lig)], Bi^III ([2]; 1 week at 80° C.): 73%
conversion to 1,5-cz-[M(Lig)], Ga^III ([2]; 1 week at 80° C.): 0%
conversion to 1,5-cz-[M(Lig)], In^III ([2]; 1 week at 80° C.): 8%
conversion to 1,5-cz-[M(Lig)], Sc^III ([2]; 1 week at 80° C.): 35%
conversion to 1,5-cz-[M(Lig)], Y^III ([2]; 1 week at 80° C.): 93%
conversion to 1,5-cz-[M(Lig)], Bi^III ([2]; 1 hour at 80° C.): 29%
conversion to 1,5-cz-[M(Lig)], Ga^III ([2]; 1 hour at 80° C.): 0%
conversion to 1,5-cz-[M(Lig)], In^III ([2]; 1 hour at 80° C.): 0%
conversion to 1,5-cz-[M(Lig)], Sc^III ([2]; 1 hour at 80° C.): 7%
conversion to 1,5-cz-[M(Lig)], Y^III ([2]; 1 hour at 80° C.): 20%
conversion to 1,4-cz-Lig isomer, Cs^I ([3]; A: 1 hour at 80° C.): 2%
conversion to 1,4-cz-Lig isomer, K^I ([3]; A: 1 hour at 80° C.): 2%
conversion to 1,4-cz-Lig isomer, Li^I ([3]; A: 1 hour at 80° C.): 0%
conversion to 1,4-cz-Lig isomer, Na^I ([3]; A: 1 hour at 80° C.): 1%
conversion to 1,4-cz-Lig isomer, Rb^I ([3]; A: 1 hour at 80° C.): 2%
conversion to 1,5-cz-Lig isomer, Cs^I ([3]; A: 1 hour at 80° C.): 0%
conversion to 1,5-cz-Lig isomer, K^I ([3]; A: 1 hour at 80° C.): 1%
conversion to 1,5-cz-Lig isomer, Li^I ([3]; A: 1 hour at 80° C.): 0%
conversion to 1,5-cz-Lig isomer, Na^I ([3]; A: 1 hour at 80° C.): 15%
conversion to 1,5-cz-Lig isomer, Rb^I ([3]; A: 1 hour at 80° C.): 0%
conversion to 1,4-cz-Lig isomer, Cs^I ([3]; B: 1 day at 80° C.): 39%
conversion to 1,4-cz-Lig isomer, K^I ([3]; B: 1 day at 80° C.): 40%
conversion to 1,4-cz-Lig isomer, Na^I ([3]; B: 1 day at 80° C.): 1%
conversion to 1,4-cz-Lig isomer, Rb^I ([3]; B: 1 day at 80° C.): 41%
conversion to 1,5-cz-Lig isomer, Cs^I ([3]; B: 1 day at 80° C.): 7%
conversion to 1,5-cz-Lig isomer, K^I ([3]; B: 1 day at 80° C.): 10%
conversion to 1,5-cz-Lig isomer, Na^I ([3]; B: 1 day at 80° C.): 85%
conversion to 1,5-cz-Lig isomer, Rb^I ([3]; B: 1 day at 80° C.): 6%
conversion to 1,4-cz-Lig isomer, Li^I [3, 5]: 2%
conversion to 1,5-cz-Lig isomer, Li^I [3, 5]: 9%
conversion to 1,5-cz-[Ln(Lig)], Ce^III ([4]; after 1 week at 80° C.): 50%
conversion to 1,5-cz-[Ln(Lig)], Ce^III ([4]; after 1 hour at 80° C.): 1%
conversion to 1,5-cz-[Ln(Lig)], Dy^III ([4]; after 1 week at 80° C.): 92%
conversion to 1,5-cz-[Ln(Lig)], Dy^III ([4]; after 1 hour at 80° C.): 13%
conversion to 1,5-cz-[Ln(Lig)], Er^III ([4]; after 1 week at 80° C.): 95%
conversion to 1,5-cz-[Ln(Lig)], Er^III ([4]; after 1 hour at 80° C.): 32%
conversion to 1,5-cz-[Ln(Lig)], Eu^III ([4]; after 1 week at 80° C.): 89%
conversion to 1,5-cz-[Ln(Lig)], Eu^III ([4]; after 1 hour at 80° C.): 4%
conversion to 1,5-cz-[Ln(Lig)], Gd^III ([4]; after 1 week at 80° C.): 92%
conversion to 1,5-cz-[Ln(Lig)], Gd^III ([4]; after 1 hour at 80° C.): 5%
conversion to 1,5-cz-[Ln(Lig)], Ho^III ([4]; after 1 week at 80° C.): 95%
conversion to 1,5-cz-[Ln(Lig)], Ho^III ([4]; after 1 hour at 80° C.): 21%
conversion to 1,5-cz-[Ln(Lig)], La^III ([4]; after 1 week at 80° C.): 49%
conversion to 1,5-cz-[Ln(Lig)], La^III ([4]; after 1 hour at 80° C.): 1%
conversion to 1,5-cz-[Ln(Lig)], Lu^III ([4]; after 1 week at 80° C.): 96%
conversion to 1,5-cz-[Ln(Lig)], Lu^III ([4]; after 1 hour at 80° C.): 64%
conversion to 1,5-cz-[Ln(Lig)], Nd^III ([4]; after 1 week at 80° C.): 79%
conversion to 1,5-cz-[Ln(Lig)], Nd^III ([4]; after 1 hour at 80° C.): 1%
conversion to 1,5-cz-[Ln(Lig)], Pr^III ([4]; after 1 week at 80° C.): 69%
conversion to 1,5-cz-[Ln(Lig)], Pr^III ([4]; after 1 hour at 80° C.): 1%
conversion to 1,5-cz-[Ln(Lig)], Sm^III ([4]; after 1 week at 80° C.): 86%
conversion to 1,5-cz-[Ln(Lig)], Sm^III ([4]; after 1 hour at 80° C.): 3%
Structure (SMILES): C#Cc1cccc(CN2CCN(CC(=O)O)CCN(Cc3cc(-c4ccccc4)cc(CN=[N+]=[N-])n3)CCN(CC(=O)O)CC2)n1 [TD647]
